Source: patent US8859615B2, “Compounds, compositions and methods for reducing toxicity and treating or preventing diseases” (priority 2008, dated 2014)
“And” between values parts separate entries of the source, which are not always exact repeats. Equal values may be shown once.

System: human colon carcinoma HCT-116 xenografts
Experiment: Compound D with Iso-Oxazole-Fludelone or Isodehydelone in nude mice bearing HCT-116 xenografts
Conditions: mouse, in vivo

iso-oxazole-fludelone (17-isooxazole-fludelone) [Iso-Flu]
complete remission (CR): 6/6 and 1/6
